Data from patent US5674879A, “Compositions including and methods of using conformationally restricted angiotensin II antagonist” (G.D. Searle & Co., priority 1995, dated 1997).
Read-outs that look alike come from different tables or passages of the source.

Columns and labels:
angiotensin II [1] = conditions: binding experiments, functional assays and in vivo tests; cited from earlier work
[2] = biological target: T1, rabbit aortic rings (angiotensin II contraction) (Oryctolagus cuniculus, UniProt P34976); test: Assay B: In Vitro Vascular Smooth Muscle Response for AII (rabbit aortic rings); format: cell-based, rabbit (male New Zealand white); conditions: rabbit aorta rings, antagonist 10^-5 M for 5 min, 37° C., read-out: Assay B pA2 (converted)
T1 construct: The thoracic aorta was removed, cleaned of adherent fat and connective tissue and then cut into 3-mm ring segments; from tissue; host or cells: rabbit thoracic aorta rings, endothelium removed
T1 sequence (P34976 1-359): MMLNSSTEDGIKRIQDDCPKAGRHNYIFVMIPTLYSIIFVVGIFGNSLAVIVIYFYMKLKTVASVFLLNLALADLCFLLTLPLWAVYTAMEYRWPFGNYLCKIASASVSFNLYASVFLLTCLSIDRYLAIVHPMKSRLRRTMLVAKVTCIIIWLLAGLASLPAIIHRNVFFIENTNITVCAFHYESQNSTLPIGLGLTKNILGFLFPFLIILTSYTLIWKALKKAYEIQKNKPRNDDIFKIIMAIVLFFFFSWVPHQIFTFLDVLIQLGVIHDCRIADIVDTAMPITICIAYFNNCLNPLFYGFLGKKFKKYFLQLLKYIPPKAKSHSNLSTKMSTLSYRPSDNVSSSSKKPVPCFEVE
Method: Assay B: In Vitro Vascular Smooth Muscle-Response for AII
The compounds of the invention were tested for antagonist activity in rabbit aortic rings. Male New Zealand white rabbits (2-2.5 kg) were sacrificed using an overdose of pentobarbital and exsanguinated via the carotid arteries. The thoracic aorta was removed, cleaned of adherent fat and connective tissue and then cut into 3-mm ring segments. The endothelium was removed from the rings by gently sliding a rolled-up piece of filter paper into the vessel lumen. The rings were then mounted in a water-jacketed tissue bath, maintained at 37° C., between moveable and fixed ends of a stainless steel wire with the moveable end attached to an FT03 Grass transducer coupled to a Model 7D Grass Polygraph for recording isometric force responses. The bath was filled with 20 ml of oxygenated (95% oxygen/5% carbon dioxide) Krebs solution of the following composition (mM): 130 NaCl, 15 NaHCO3, […], 1.2 NaH2 PO4, 1.2 MgSO4, 2.5 CaCl2, and 11.4 glucose. The preparations were equilibrated for one hour before approximately one gram of passive tension was placed on the rings. Angiotensin II concentration-response curves were then recorded (3×10^-10 to 1×10^-5 M). Each concentration of AII was allowed to elicit its maximal contraction, and then AII was washed out repeatedly for 30 minutes before rechallenging with a higher concentration of AII. Aorta rings were exposed to the test antagonist at 10^-5 M for 5 minutes before challenging with AII. Adjacent segments of the same aorta ring were used for all concentration-response curves in the presence or absence of the test antagonist. The effectiveness of the test compound was expressed in terms of pA2 values and were calculated according to H. O. Schild [Br. J. Pharmacol. Chemother., 2, 189-206 (1947)]. The pA2 value is the concentration of the antagonist which increases the IC50 value for AII by a factor of two. Each test antagonist was evaluated in aorta rings from two rabbits.

[3] = biological target: smooth muscle angiotensin II receptor; test: Assay A: Angiotensin II Binding Activity (displacement of 125I-angiotensin II, rat uterine membrane preparation); conditions: 50% displacement of specifically bound 125I-AII, rat uterine membranes, 25° C., 60 min, pH 7.5
Method: Assay A: Angiotensin II Binding Activity
Compounds of the invention were tested for ability to bind to the smooth muscle angiotensin II receptor using a rat uterine membrane preparation. Angiotensin II (AII) was purchased from Peninsula Labs. ^125 I-angiotensin II (specific activity of 2200 Ci/mmol) was purchased from Du Pont-New England Nuclear. Other chemicals were obtained from Sigma Chemical Co. This assay was carried out according to the method of Douglas et al [Endocrinology, 106, 120-124 (1980)]. Rat uterine membranes were prepared from fresh tissue. All procedures were carried out at 4° C. Uteri were stripped of fat and homogenized in phosphate-buffered saline at pH 7.4 containing 5 mM EDTA. The homogenate was centrifuged at 1500×g for 20 min., and the supernatant was recentrifuged at 100,000×g for 60 min. The pellet was resuspended in buffer consisting of 2 mM EDTA and 50 mM Tris-HCl (pH 7.5) to a final protein concentration of 4 mg/ml. Assay tubes were charged with 0.25 ml of a solution containing 5 mM MgCl2, 2 mM EDTA, 0.5% bovine serum albumin, 50 mM Tris-HCl, pH 7.5 and ^125 I-AII (approximately 10^5 cpm) in the absence or in the presence of unlabelled ligand. The reaction was initiated by the addition of membrane protein and the mixture was incubated at 25° C. for 60 min. The incubation was terminated with ice-cold 50 mM Tris-HCl (pH 7.5) and the mixture was filtered to separate membrane-bound labeled peptide from the free ligand. The incubation tube and filter were washed with ice-cold buffer. Filters were assayed for radioactivity in a Micromedic gamma counter. Nonspecific binding was defined as binding in the presence of 10 μM of unlabelled AII. Specific binding was calculated as total binding minus nonspecific binding. The receptor binding affinity of an AII antagonist compound was indicated by the concentration (IC50) of the tested AII antagonist which gives 50% displacement of the total specifically bound ^125 I-AII from the high affinity AII receptor. Binding data were analyzed by a nonlinear least-squares curve fitting program.

angiotensin II [4] = conditions: cited from earlier work
[5] = first of two values in the cell (rings from two rabbits)
[6] = second of two values in the cell (rings from two rabbits)

Structure (SMILES): CCCCc1nc(Cl)c(CC(=O)O)n1Cc1ccccc1[N+](=O)[O-] [2-butyl-4-chloro-1-(2-nitrobenzyl)imidazole-5-acetic acid]
- specific competitive angiotensin II antagonist activity (angiotensin II [1]): specific competitive angiotensin II antagonist activity

Structure (SMILES): CCCCc1nc(Cl)c(CC(=O)O)n1Cc1ccccc1Cl [2-n-butyl-4-chloro-1-(2-chlorobenzyl)imidazole-5-acetic acid]
- specific competitive angiotensin II antagonist activity (angiotensin II [1]): specific competitive angiotensin II antagonist activity

Structure (SMILES): CCCCc1ncc2n1C(c1ccc(-c3ccccc3-c3nnn[nH]3)cc1)CC=C2CC(=O)OC(C)(C)C (stereo not drawn) [Example 17, 1,1-Dimethylethyl 3-butyl-5,6-dihydro-5-[2'-(1H-tetrazol-5-yl)[1,1'-biphenyl]-4-yl]imidazo[1,5-a]pyridin-8-acetate]
- Kb [2, 5]: 16.2 nM
- Kb [2, 6]: 53.7 nM
- IC50 [3]: 41 nM

Structure (SMILES): CCCCc1nc(CCCC)n2c1C(=NO)CCC2c1ccc(-c2ccccc2-c2nn[nH]n2)cc1 (stereo not drawn) [Example 21, 1,3-Dibutyl-5,6-dihydro-N-hydroxy-5-[2'-(1H-tetrazol-5-yl)[1.1'-biphenyl]-4-yl]imidazol[1,5-a]pyridin-8(7H)-imine]
- Kb [2, 5]: 105 nM
- Kb [2, 6]: 741 nM
- IC50 [3]: 66 nM

Structure (SMILES): CNCC(=O)N[C@@H](CCCN=C(N)N)C(=O)N[C@H](C(=O)N[C@@H](Cc1ccc(O)cc1)C(=O)N[C@H](C(=O)N[C@@H](Cc1cnc[nH]1)C(=O)N1CCC[C@H]1C(=O)N[C@@H](C)C(=O)O)C(C)C)C(C)C [Saralasin]
- residual agonist activity (angiotensin II [4]): significant residual agonist activity
